We go through 17 compounds from ChEMBL document CHEMBL5661943, “ASAP - In vitro antiviral effect” (2024).

Experiment [1] relates to Zika virus. As to the kind of experiment: Functional CPE-based assay to measure dose dependent changes in antiviral-drug inhibitory efficacy against Zika virus MR766 in Vero E6 miRFP670 cells. Cells are treated with antiviral candidates that are serially diluted. EC50 is reported via analysis of MTS assay as a readout of CPE. The assay has been performed by KU Leuven. It counts as organism-based, Chlorocebus sabaeus, Vero C1008. As to conditions: Zika virus; for EC50: Vero C1008. Background: Formazan colour is commonly taken as a measure of viable cells.

Experiment [2] concerns dengue virus type 2. The experiment can be described thus: Functional assay to measure dose dependent changes in antiviral-drug inhibitory efficacy against Dengue virus type 2 New Guinea C in Vero E6 miRFP670 cells (cotreated with P-gp inhibitor, CP100356). Cells are treated with antiviral candidates that are serially diluted, following infection, cells are fixed. EC50 is reported via analysis of fluorescence intensity using high-content imager. The …. It counts as organism-based, Chlorocebus sabaeus, Vero C1008. As to conditions: Dengue virus.

Experiment [3] relates to Zika virus. The experiment can be described thus: Functional CPE-based assay to measure dose dependent changes in antiviral-drug inhibitory efficacy against Zika virus MR766 in Vero E6 miRFP670 cells (cotreated with P-gp inhibitor, CP100356). Cells are treated with antiviral candidates that are serially diluted. EC50 is reported via analysis of MTS assay as a readout of CPE. The assay has been performed by KU Leuven. The class given is organism-based, Chlorocebus sabaeus, Vero C1008. As to conditions: Zika virus; for EC90: P-gp concentration 500 nM, P-gp inhibitor CP100356.

Experiment [4] has as its system Zika virus. As to the kind of experiment: EC50 is reported via analysis of immunofluorescence staining. The assay has been performed by Icahn School of Medicine at Mount Sinai. The class given is functional, organism-based, Chlorocebus sabaeus, VeroE6/TMPRSS2. As to conditions: for EC90: P-gp concentration 2 uM, P-gp inhibitor Elacidar.
Experiment [5] deals with dengue virus type 2. As to the kind of experiment: Functional immunofluorescence assay to measure dose dependent changes in antiviral-drug inhibitory efficacy against Dengue virus type 2 Thailand/16681/84 in Vero E6/TMPRSS2 cells (cotreated with P-gp inhibitor, Elacridar). Cells are treated with antiviral candidates that are serially diluted, following infection, cells are fixed. EC50 is reported via analysis of immunofluorescence staining. The assay has been performed by Icahn School of Medicine at Mount Sinai. As to conditions: Dengue virus; for EC90: P-gp concentration 2 uM, P-gp inhibitor Elacidar. The class given is organism-based, Chlorocebus sabaeus, VeroE6/TMPRSS2.

“And” between values parts separate entries of the source, which are not always exact repeats. Equal values may be shown once.

Regarding `O=C(Nc1ccc2c(c1)CNCC2)c1cc(Cl)cc2[nH]ncc12`, the EC50 (commonly the midpoint of the concentration-response curve) in experiment [1] is more than 50 µM. The EC90 – broadly, the concentration needed for an effect of 90% – in experiment [1] (Vero C1008, Maximum measured 0.588 %, Minimum measured -2.808 %) was more than 50 µM.

`CC(C)(C)c1cc(Br)cc(C(=O)Nc2ccc3c(c2)CNC3)c1`: in experiment [1], the 50% effective concentration (EC50) is more than 50 µM. For the same compound, the EC90 in experiment [1] (Vero C1008, Baseline response 0 %, Hill slope -3.526, Maximum measured 2.777 %, Maximum response 100 %, Minimum measured -2.992 %, R squared 0.044) is more than 50 µM.

`CN1Cc2ccc(NC(=O)c3cc(Cl)cc4[nH]ncc34)cc2C1` registered a concentration for a half-maximal effect (EC50) in experiment [1] of more than 50 µM. Besides, the EC90 in experiment [1] (Vero C1008, Baseline response 0 %, Hill slope -0.359, Maximum measured 1.713 %, Maximum response 100 %, Minimum measured -2.397 %, R squared 0.026) was more than 50 µM.

For `N#CCCNC(=O)[C@H](Nc1ccc2c(c1)CNC2)c1cc(Cl)cc(C2CC2)c1`, the concentration for a half-maximal effect (EC50) in experiment [2] (Vero C1008) was more than 50 µM; in experiment [3] (Vero C1008), 4.22 µM; in experiment [4] (veroe6/tmprss2), > 5.56 µM and 2.54 µM; in experiment [5] (VeroE6/TMPRSS2), more than 50 µM. In addition, the 90% effect concentration (EC90) in experiment [2] (Vero C1008, Maximum measured 137.124 %, Minimum measured 107.523 %, P-gp concentration 500 nM, P-gp inhibitor CP100356) is more than 50 µM; in experiment [3] (Vero C1008, Baseline response 0 %, EC90 CI (lower) 2.191 uM, EC90 CI (upper) 28.402 uM, Hill slope 3.509, Maximum measured 177.981 %, Maximum response 100 %, Minimum measured 1.478 %, R squared 0.727), 7.89 µM; in experiment [4] (Zika virus, VeroE6/TMPRSS2, Maximum measured 63.585 %, Minimum measured 35.457 %), more than 5.56 µM; in experiment [4] (Zika virus, VeroE6/TMPRSS2, Baseline response 0 %, Hill slope -0.414, Maximum measured 108.813 %, Maximum response 100 %, Minimum measured 38.683 %, R squared 0.619), more than 16.7 µM; in experiment [5] (VeroE6/TMPRSS2, Maximum measured 184.621 %, Minimum measured 81.605 %) it was more than 50 µM.

Regarding `O=C(Nc1ccc2c(c1)CNC2)c1cc(F)cc2[nH]nnc12`, the concentration for a half-maximal effect (EC50) was more than 50 µM in experiment [2] (Vero C1008); more than 50 µM in experiment [3] (Vero C1008); more than 50 µM in experiment [4] (Zika virus, VeroE6/TMPRSS2); more than 50 µM in experiment [5] (VeroE6/TMPRSS2). For the same compound, the EC90 is more than 50 µM in experiment [2] (Vero C1008, Maximum measured 103.909 %, Minimum measured 99.111 %, P-gp concentration 500 nM, P-gp inhibitor CP100356); more than 50 µM in experiment [3] (Vero C1008, Maximum measured -0.357 %, Minimum measured -5.629 %); more than 50 µM in experiment [4] (Zika virus, VeroE6/TMPRSS2, Maximum measured 143.994 %, Minimum measured 34.535 %); more than 50 µM in experiment [5] (VeroE6/TMPRSS2, Maximum measured 175.922 %, Minimum measured 81.786 %); more than 50 µM in experiment [5] (VeroE6/TMPRSS2, Baseline response 0 %, Hill slope 0.135, Maximum measured 108.442 %, Maximum response 100 %, Minimum measured 80.171 %, R squared 0.018).

For `CC(C)c1cc(Br)cc(C(=O)Nc2ccc3c(c2)CNC3)c1`, the EC50 in experiment [1] was more than 50 µM. Further, the concentration for an effect of 90% (EC90) in experiment [1] (Vero C1008, Baseline response 0 %, Hill slope -0.823, Maximum measured 6.311 %, Maximum response 100 %, Minimum measured -3.726 %, R squared 0.279) was more than 50 µM.

`Cn1cc(CNC(=O)[C@H](Nc2ccc3c(c2)CNC3)c2cc(Cl)cc(C3CC3)c2)cn1`: the EC50 in experiment [2] (Vero C1008), in experiment [3] (Vero C1008), in experiment [4] (veroe6/tmprss2) and in experiment [5] (VeroE6/TMPRSS2) was more than 50 µM in each case. The 90% effect concentration (EC90) in experiment [2] (Vero C1008, Maximum measured 110.921 %, Minimum measured 103.415 %, P-gp concentration 500 nM, P-gp inhibitor CP100356) was more than 50 µM; in experiment [3] (Vero C1008, Maximum measured -1.973 %, Minimum measured -8.89 %), more than 50 µM; in experiment [4] (Zika virus, VeroE6/TMPRSS2, Maximum measured 136.439 %, Minimum measured 82.812 %), more than 5.56 µM; in experiment [4] (Zika virus, VeroE6/TMPRSS2, Maximum measured 172.39 %, Minimum measured 65.114 %), more than 50 µM; in experiment [5] (VeroE6/TMPRSS2, Maximum measured 219.34 %, Minimum measured 69.596 %), more than 50 µM.

For `COC(=O)CNC(=O)[C@H](Nc1ccc2c(c1)CNC2)c1cc(Cl)cc(C2CC2)c1`, the EC50 in experiment [2] (Vero C1008) was more than 50 µM; in experiment [3] (Vero C1008) it was more than 50 µM; in experiment [4] (veroe6/tmprss2), more than 16.7 µM; in experiment [5] (VeroE6/TMPRSS2) it was more than 50 µM. In addition, the EC90 in experiment [2] (Vero C1008, Maximum measured 109.152 %, Minimum measured 106.626 %, P-gp concentration 500 nM, P-gp inhibitor CP100356) was more than 50 µM; in experiment [3] (Vero C1008, Baseline response 0 %, Hill slope 2.666, Maximum measured 16.971 %, Maximum response 100 %, Minimum measured -1.569 %, R squared 0.882) it was more than 50 µM; in experiment [4] (Zika virus, VeroE6/TMPRSS2, Maximum measured 147.006 %, Minimum measured 69.301 %), more than 16.7 µM; in experiment [4] (Zika virus, VeroE6/TMPRSS2, Baseline response 0 %, Hill slope -5.229, Maximum measured 154.716 %, Maximum response 100 %, Minimum measured 79.745 %, R squared 0.023), more than 5.56 µM; in experiment [5] (VeroE6/TMPRSS2, Maximum measured 158.675 %, Minimum measured 120.715 %), more than 50 µM.

Take `N#C[C@H](Nc1cncc(-c2nn[nH]n2)c1)c1cc(Cl)cc(NC(=O)OCc2ccccc2)c1`: the concentration giving a half-maximal response (EC50) in experiment [1] was more than 50 µM. In experiment [1] (Vero C1008, Baseline response 0 %, Hill slope -0.546, Maximum measured 2.599 %, Maximum response 100 %, Minimum measured -1.254 %, R squared 0.412), this compound gave an EC90 of more than 50 µM.

Regarding `O=C(Nc1cc(Cl)cc([C@H]2[C@H](CO)[C@@H]2c2cccc(-c3nn[nH]n3)c2)c1)OCc1ccccc1`, in experiment [1], the EC50 was more than 50 µM. In addition, the EC90 in experiment [1] (Vero C1008, Baseline response 0 %, Hill slope -0.077, Maximum measured 3.793 %, Maximum response 100 %, Minimum measured 1.644 %, R squared 0.146) was more than 50 µM.

Regarding `NCc1cccc(NC(=O)[C@H](NC(=O)OCc2ccccc2)c2ccc(Br)c(Cl)c2)c1`, the concentration giving a half-maximal response (EC50) was 27.9 µM in experiment [2] (Vero C1008) and more than 50 µM in experiment [1]. The concentration for an effect of 90% (EC90) in experiment [2] (Vero C1008, Baseline response 0 %, Hill slope -1.252, Maximum measured 107.5 %, Maximum response 100 %, Minimum measured 22.965 %, P-gp concentration 500 nM, R squared 0.543, P-gp inhibitor CP100356) was more than 50 µM; in experiment [1] (Vero C1008, Baseline response 0 %, Hill slope 4.111, Maximum measured 16.618 %, Maximum response 100 %, Minimum measured -5.242 %, R squared 0.822), more than 50 µM.

In the case of `COc1cccc(-c2ccc([C@@H](NC(=O)OCc3ccccc3)C(=O)Nc3cccc(CN)c3)cc2)c1`, the EC50 in experiment [2] (Vero C1008) was 11.3 µM; in experiment [1], more than 50 µM. The EC90 in experiment [2] (Vero C1008) was 13 µM; in experiment [1] (Vero C1008, Maximum measured 5.224 %, Minimum measured -9.76 %), more than 50 µM.

For `COc1cc(-c2cc(Cl)cc(NC(=O)OCc3ccccc3)c2)c(OC)cc1CC(=O)O`, the half-maximal effective concentration (EC50) in experiment [1] was more than 50 µM. For the same compound, the EC90 in experiment [1] (Vero C1008, Baseline response 0 %, Hill slope 0.25, Maximum measured 21.22 %, Maximum response 100 %, Minimum measured 1.079 %, R squared 0.113) is more than 50 µM.

As for `CCNC(=O)Nc1cc(Cl)cc(C(=O)Nc2cccc(CN)c2)c1`, the concentration for a half-maximal effect (EC50) in experiment [2] (Vero C1008) and in experiment [1] was more than 50 µM in each case. The concentration for an effect of 90% (EC90) was more than 50 µM in experiment [2] (Vero C1008, Maximum measured 108.516 %, Minimum measured 107.498 %, P-gp concentration 500 nM, P-gp inhibitor CP100356) and more than 50 µM in experiment [1] (Vero C1008, Baseline response 0 %, Hill slope -0.392, Maximum measured 2.06 %, Maximum response 100 %, Minimum measured -2.343 %, R squared 0.131).

For the compound `NCc1cccc(NC(=O)[C@@H](NC(=O)OCc2ccccc2)c2ccc(-c3cc4cccnc4s3)cc2)c1`, the concentration for a half-maximal effect (EC50) in experiment [2] (Vero C1008) and in experiment [1] was more than 50 µM in each case. For the same compound, the 90% effect concentration (EC90) is more than 50 µM in experiment [2] (Vero C1008, Baseline response 0 %, Hill slope -1.813, Maximum measured 108.419 %, Maximum response 100 %, Minimum measured 62.17 %, P-gp concentration 500 nM, R squared 0.703, P-gp inhibitor CP100356) and more than 50 µM in experiment [1] (Vero C1008, Baseline response 0 %, Hill slope 2.61, Maximum measured 41.685 %, Maximum response 100 %, Minimum measured -5.482 %, R squared 0.949).

Turning to `O=C(Nc1cc(Cl)cc(-c2cccc3c(C(=O)O)cccc23)c1)OCc1ccccc1`, the concentration for a half-maximal effect (EC50) in experiment [1] was more than 50 µM. Further, in experiment [1] (Vero C1008, Maximum measured -0.778 %, Minimum measured -5.402 %), the 90% effect concentration (EC90) is more than 50 µM.

On to `NCc1cccc(NC(=O)[C@H](NC(=O)OCc2ccccc2)C2CCC(c3ccccc3)CC2)c1` (some centres not stated), for which the EC50 was 6.69 µM in experiment [2] (Vero C1008) and more than 50 µM in experiment [1]. Besides, the EC90 was 8.79 µM in experiment [2] (Vero C1008, Baseline response 0 %, EC90 CI (lower) 1.121 uM, EC90 CI (upper) 23.089 uM, Hill slope -8.04, Maximum measured 108.249 %, Maximum response 100 %, Minimum measured 2.62 %, P-gp concentration 500 nM, R squared 0.836, P-gp inhibitor CP100356) and more than 50 µM in experiment [1] (Vero C1008, Baseline response 0 %, Hill slope 12.54, Maximum measured 11.506 %, Maximum response 100 %, Minimum measured -10.271 %, R squared 0.094).
